Values of other authors, collected in article PMC3563429 (Journal of the American Chemical Society, 2013).

Test system: human calpain protease 1
Details: for inhibitory action against the cysteine protease calpain 1: described in the patent literature; for IC50: read-out: IC50 against human calpain protease 1, previously reported

Molecule	inhibitory action against the cysteine protease calpain 1	IC50 [nM]
Thalassospiramide D1 [Thalassospiramide D1 (15)]	nanomolar inhibitory action	39
CCCCCC/C=C\CC(=O)N[C@@H](Cc1ccc(O)cc1)[C@@H](O)CC(=O)N[C@H](C(=O)N[C@@H](CO)[C@@H](O)CC(=O)N[C@H](C(=O)N[C@@H]1C=CC(=O)N[C@@H](C(C)C)C(=O)N(C)[C@@H](Cc2ccc(O)cc2)C(=O)OC1)C(C)C)C(C)C [Compound 12, thalassospiramide B1]	nanomolar inhibitory action	80
